Source: PubChem BioAssay (NCI)
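Test compounds were applied to cells in 96-well plates for 48 hours at 5 doses. TGI: total growth inhibition.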

What was measured:
Assay in all cases: DTP human tumour cell line panel, 48 h
NCI-H522 lung = test system: NCI-H522 lung
UACC-62 melanoma = test system: UACC-62 melanoma
LOX IMVI melanoma = test system: LOX IMVI melanoma
UACC-257 melanoma = test system: UACC-257 melanoma
MDA-MB-435 = test system: MDA-MB-435
ACHN renal = test system: ACHN renal
SW-620 colon = test system: SW-620 colon
IGROV1 ovarian = test system: IGROV1 ovarian
T-47D breast = test system: T-47D breast
SNB-75 CNS = test system: SNB-75 CNS

Compound | TGI (NCI-H522 lung) [µM] | TGI (UACC-62 melanoma) [µM] | TGI (LOX IMVI melanoma) [µM] | TGI (UACC-257 melanoma) [µM] | TGI (MDA-MB-435) [µM] | TGI (ACHN renal) [µM] | TGI (SW-620 colon) [µM] | TGI (IGROV1 ovarian) [µM] | TGI (T-47D breast) [µM] | TGI (SNB-75 CNS) [µM]
CC1=C2C(=O)c3ccccc3C(=O)[C@H]2C[C@@H](N2CCCCCC2=O)O1 | 38.9 | 37.4 | 44.5 | 31.2 | 29.7 | 51.7 | 33.1 | 30.7 | 42.3 | 45.1
CC1=C2NCN(C)N=C2C(C#N)(C#N)C1(C#N)C#N | 28.5 | 46.8 | > 54.4 | 33.9 | 46.6 | 33 | 42.2 | > 63 | 59 | > 87.9
C=C1CC(Cn2cc(Br)c(=O)[nH]c2=O)(c2ccc(-c3ccccc3)cc2)OC1=O (stereo not given) | 2.55 | 2.45 | 2.61 | 2.53 | 2.36 | 3.24 | 1.58 | 2.96 | 4.87 | 17.6
Cn1c(=O)sc2cc(C(=S)N3CCOCC3)ccc21 | > 100 | > 100 | > 100 | > 100 | > 100 | > 100 | > 100 | > 100 | > 100 | > 95.3
CO[P@]1(=O)O[C@@H](c2ccccc2)[C@H](O)[C@@]1(O)c1ccccc1 | > 100 | > 100 | > 100 | > 100 | > 100 | > 100 | > 100 | > 100 | > 100 | > 100
NC(=S)N/N=C\CC(O)(C(F)(F)F)C(F)(F)F | > 10 | > 10 | > 10 | > 10 | > 10 | > 10 | > 10 | > 10 | > 10 | > 10
c1ccc([P+](c2ccccc2)(c2ccccc2)c2ccc([P+](c3ccccc3)(c3ccccc3)c3ccccc3)cc2)cc1 | > 100 | > 100 | > 100 | > 100 | > 100 | > 100 | > 100 | > 100 | > 100 | > 100
CC/C(Cl)=N\OC(=O)Nc1ccc(F)cc1F | 3.65 | 32.3 | 6.57 | 34.2 | 34.2 | 3.78 | 2.95 | 31.9 | 15.5 | 47.1
O=S1(=O)CCN(c2ccccc2CC(c2c[nH]c3ccccc23)c2c[nH]c3ccccc23)CC1 | 17.2 | 18.9 | 11.6 | 18 | > 31.7 | > 91.7 | 21.1 | 33.4 | > 100 | 23.6
CC(=O)CC1(C)OC(N)=C(C#N)C1(C#N)C#N (stereo not given) | > 100 | > 100 | > 100 | > 100 | > 100 | > 100 | > 100 | > 100 | > 100 | > 100
COC(=O)C(C(=O)C(=O)NC1Nc2ccc(C)cc2S1)c1nc2ccc(Cl)cc2[nH]c1=O (stereo not given) | > 100 | > 100 | > 100 | > 100 | > 100 | > 100 | > 100 | > 100 | > 100 | > 100
O=S(=O)(O)C1CCC(O)C2[N-]CCCC21.O=S(=O)(O)C1CCC(O)C2[N-]CCCC21.[Zn+2] (stereo not given) | > 100 | > 100 | > 100 | > 100 | > 100 | > 100 | > 100 | > 100 | > 100 | > 100
COC(=O)c1c(OC)cc2cc3c(c(O)c2c1C)C(=O)C1(O)C(=O)C=C(OC)C(OC(=O)CC(C)N)=C1C3=O (stereo not given) | > 100 | > 100 | > 100 | > 100 | > 100 | > 100 | > 100 | 69.1 | > 100 | 18
CC1(C)[C@@H]2CC[C@@]1(C)[C@H](O)[C@@H]2SCc1ccccc1 | 29.3 | 22.2 | 36.6 | 32.5 | 33.2 | 24 | 74.9 | 37.4 | 62.8 | 49.1
COc1cc2cc(C(=O)N3CC(CCl)c4c3cc([N+](C)(C)Cc3ccc([N+](=O)[O-])n3C)c3ccccc43)[nH]c2c(OC)c1OC (stereo not given) | 0.981 | 3.14 | 12.3 | 5.4 | 60.7 | > 100 | > 100 | 4.23 | 38.9 | 7.18
CC(C)(C)c1ccc(-c2nnc(-c3cc(C#N)cc(-c4nnc(-c5ccc(C(C)(C)C)cc5)o4)c3)o2)cc1 | > 100 | > 100 | > 100 | > 100 | > 100 | > 100 | > 100 | > 100 | > 100 | > 100
